The target in assay [1] is T1, recombinant METTL3/METTL14 complex (Homo sapiens, UniProt Q86U44).
T1 construct: purchased Active Motif 311970; host or cells: Sf9 cells
Description: METTL3/14 Scintillation Proximity Assay (SPA), RNA methyltransferase activity. The format is biochemical. To be noted: 5.31 nM METTL3/14 complex, 250 nM RNA substrate, 1 μM 3H-SAM, 90 min; for compounds marked * best of the two separated forms.

Assay [2] concerns Caov-3 cells. Description: Caov-3 cellular viability assay (ATP-Lite, 72 h). The assay is classed as cell-based. The conditions noted are these: Homo sapiens, ATP-Lite luminescence, % viability relative to DMSO. An outline of the steps:
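IC50 values come from concentration-response fits of luminescent ATP content (ATP-Lite One Step), normalised as % viability versus DMSO. Compound exposure was 72 h at 37 °C in RPMI-1640/10% FBS with 0.1% final DMSO. Wells held 10000 cells each.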

Assay [3] relates to Kasumi-1 cells. Put plainly: Kasumi-1 cellular viability assay (ATP-Lite, 72 h). The format is cell-based. To be noted: Homo sapiens, ATP-Lite luminescence, % viability relative to DMSO. An outline of the steps:
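Viability was read by ATP-Lite One Step luminescence after 72 h compound treatment at 37 °C/5% CO2, normalised to DMSO control, with IC50 fitted from concentration-response. Cells were Kasumi-1 (AML FAB M2) at 15000 per well in RPMI-1640/10% FBS, 0.1% DMSO final.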

T1 sequence (Q86U44 whole entry): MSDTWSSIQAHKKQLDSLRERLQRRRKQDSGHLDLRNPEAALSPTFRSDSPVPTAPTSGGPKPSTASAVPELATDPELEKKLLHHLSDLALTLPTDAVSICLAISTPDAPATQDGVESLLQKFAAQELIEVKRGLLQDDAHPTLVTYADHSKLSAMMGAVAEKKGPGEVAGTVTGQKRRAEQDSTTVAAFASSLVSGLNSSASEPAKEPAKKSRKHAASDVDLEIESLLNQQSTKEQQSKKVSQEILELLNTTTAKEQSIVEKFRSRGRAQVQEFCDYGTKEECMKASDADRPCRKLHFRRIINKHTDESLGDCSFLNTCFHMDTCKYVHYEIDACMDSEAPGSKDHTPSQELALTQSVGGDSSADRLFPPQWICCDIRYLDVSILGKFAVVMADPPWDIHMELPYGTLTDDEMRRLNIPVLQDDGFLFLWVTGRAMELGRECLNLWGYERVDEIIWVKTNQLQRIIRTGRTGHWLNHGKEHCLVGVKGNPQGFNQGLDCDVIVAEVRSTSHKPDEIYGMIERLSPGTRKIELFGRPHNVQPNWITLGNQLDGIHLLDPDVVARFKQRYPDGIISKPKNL
T1 sequence (Q9HCE5 whole entry partner): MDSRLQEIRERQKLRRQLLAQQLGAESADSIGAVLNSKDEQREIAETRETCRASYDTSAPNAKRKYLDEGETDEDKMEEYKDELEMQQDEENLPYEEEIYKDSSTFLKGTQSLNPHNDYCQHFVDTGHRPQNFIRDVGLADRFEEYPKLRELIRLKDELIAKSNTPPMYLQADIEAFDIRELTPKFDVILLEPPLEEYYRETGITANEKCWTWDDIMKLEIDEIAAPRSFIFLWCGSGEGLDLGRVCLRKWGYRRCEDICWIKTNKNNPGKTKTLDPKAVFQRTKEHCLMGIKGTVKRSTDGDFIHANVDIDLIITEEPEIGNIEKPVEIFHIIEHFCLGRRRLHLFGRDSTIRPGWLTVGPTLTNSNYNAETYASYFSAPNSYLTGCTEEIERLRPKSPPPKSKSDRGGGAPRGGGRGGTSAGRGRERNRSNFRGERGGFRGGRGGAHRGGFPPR

Consider `CC(c1ccc(N2CCC[C@@H](NCC3(C)CC3)C2)cn1)c1nnc(-c2cncc(N3CCCC3)n2)s1` (single isomer, unassigned) [Compound 366], for which the IC50 was no more than 50 nM in assay [1], no more than 500 nM in assay [2] and no more than 500 nM in assay [3].

With `COc1cncc(-c2cn(Cc3ccc(N4CCC[C@@H](NCC5CCC5)C4)nc3)nn2)c1` [Compound 086, (R)-N-(cyclobutylmethyl)-1-(5-((4-(5-methoxypyridin-3-yl)-1H-1,2,3-triazol-1-yl)methyl)pyridin-2-yl)piperidin-3-amine], the IC50 in assay [1] was no more than 50 nM; in assay [2], 500 to 5000 nM; in assay [3] it was 500 to 5000 nM.

As for `FC1(F)CCN(c2cncc(-c3cn(C4(c5ccc(N6CCC[C@@H](NCC7CC7)C6)cn5)COC4)nn3)n2)C1` [Compound 215, (R)-N-(cyclopropylmethyl)-1-(6-(3-(4-(6-(3,3-difluoropyrrolidin-1-yl)pyrazin-2-yl)-1H-1,2,3-triazol-1-yl)oxetan-3-yl)pyridin-3-V)piperidin-3-amine], the IC50 in assay [1] was no more than 50 nM; in assay [2] it was no more than 500 nM; in assay [3] it was no more than 500 nM.

For `CC(n1cc(-c2cncc(N3CCN(C)C3=O)c2)nn1)n1ccc(N2CCC[C@@H](NCC3CCC3)C2)cc1=O` (single isomer, unassigned) [Compound 153], the concentration for half-maximal inhibition (IC50) in assay [1] is no more than 50 nM; in assay [2], greater than 5000 nM; in assay [3], greater than 5000 nM.

For the compound `CC(C)Nc1cncc(-c2cn(C(C)n3ccc(N4CCC[C@@H](NCC5CCC5)C4)cc3=O)nn2)c1` (single isomer, unassigned) [Compound 158], the figures for the IC50 in assay [1], in assay [2] and in assay [3] were no more than 50 nM, no more than 500 nM and no more than 500 nM, respectively.

For the compound `CC1(C)CCN(c2cncc(-c3cn(C4(c5ccc(N6CCC[C@@H](NCC7CC7)C6)cn5)COC4)nn3)n2)C1` [Compound 214, (R)-N-(cyclopropylmethyl)-1-(6-(3-(4-(6-(3,3-dimethylpyrrolidin-1-yl)pyrazin-2-yl)-1H-1,2,3-triazol-1-yl)oxetan-3-yl)pyridin-3-yl)piperidin-3-amine], the IC50 is no more than 50 nM in assay [1], no more than 500 nM in assay [2] and no more than 500 nM in assay [3].

With `COc1cc(-c2cn(C(C)c3ccc(N4CCC[C@@H](NCC5CCC5)C4)nn3)nn2)c2cn[nH]c2c1` (single isomer, unassigned) [Compound 037], the IC50 in assay [1] was no more than 50 nM; in assay [2], no more than 500 nM; in assay [3], no more than 500 nM.

`CN(C)c1cncc(NC(=O)C2(c3ccc(N4CCC[C@@H](NCC5CC5)C4)cn3)COC2)c1` [Compound 175, (R)-3-(5-(3-((cyclopropylmethyl)amino)piperidin-1-yl)pyridin-2-yl)-N-(5-(dimethylamino)pyridin-3-yl)oxetane-3-carboxamide]: the IC50 was no more than 50 nM in assay [1], 500 to 5000 nM in assay [2] and 500 to 5000 nM in assay [3].

In the case of `COc1cc(-c2cn(Cc3nnc(N4CCCC(NCC5CCC5)C4)s3)nn2)c2cn[nH]c2c1` (stereo not drawn) [Compound 036, N-(cyclobutylmethyl)-1-(5-((4-(6-methoxy-1H-indazol-4-yl)-1H-1,2,3-triazol-1-yl)methyl)-1,3,4-thiadiazol-2-yl)piperidin-3-amine], the IC50 was no more than 50 nM in assay [1], greater than 5000 nM in assay [2] and greater than 5000 nM in assay [3].

On to `COc1cc(-c2cn(Cc3ccc(N4CCCC(N5CCC(C)CC5)C4)nn3)nn2)c2cn[nH]c2c1` (stereo not drawn) [Compound 007, 6-methoxy-4-(1-((6-(4-methyl-[1,3′-bipiperidin]-1′-yl)pyridazin-3-yl)methyl)-1H-1,2,3-triazol-4-yl)-1H-indazole], for which the IC50 in assay [1] was no more than 50 nM; in assay [2], 500 to 5000 nM; in assay [3], 500 to 5000 nM.

As for `O=C(NCc1ccc(N2CCC[C@@H](NCC3CCC3)C2)nn1)c1cc(=O)n2ccsc2n1` [Compound 010, (R)-N-((6-(3-((cyclobutylmethyl)amino)piperidin-1-yl)pyridazin-3-yl)methyl)-5-oxo-5H-thiazolo[3,2-a]pyrimidine-7-carboxamide], the IC50 in assay [1] is 50 to 500 nM; in assay [2] it was greater than 5000 nM; in assay [3], greater than 5000 nM.

As to `COc1cncc(-c2cn(C(C)n3ccc(N4CCC[C@@H](NCC5CCC5)C4)cc3=O)nn2)c1` (single isomer, unassigned) [Compound 055], the IC50 in assay [1] is no more than 50 nM; in assay [2] it was no more than 500 nM; in assay [3], no more than 500 nM.

Take `COc1cc(-c2cn(Cn3ncc(N4CCCC(NCC5CCC5)C4)cc3=O)nn2)c2cn[nH]c2c1` (stereo not drawn) [Compound 028, 5-(3-((cyclobutylmethyl)amino)piperidin-1-yl)-2-((4-(6-methoxy-1H-indazol-4-yl)-1H-1,2,3-triazol-1-yl)methyl)pyridazin-3(2H)-one]: the figures for the IC50 in assay [1], in assay [2] and in assay [3] were no more than 50 nM, 500 to 5000 nM and 500 to 5000 nM, respectively.

In the case of `CC(n1cc(-c2cncc(N3CC(C(F)F)C3)c2)nn1)n1ccc(N2CCC[C@@H](NCC3CC3)C2)cc1=O` (single isomer, unassigned) [Compound 209], the figures for the IC50 in assay [1], in assay [2] and in assay [3] were no more than 50 nM, 500 to 5000 nM and 500 to 5000 nM, respectively.

Regarding `COc1cncc(-c2cn([C@H](C)n3ccc(N4CCC[C@@H](NCC5CCC5)C4)cc3=S)nn2)c1` [Compound 116, 4-((R)-3-((cyclobutylmethyl)amino)piperidin-1-yl)-1-((R)-1-(4-(5-methoxypyridin-3-yl)-1H-1,2,3-triazol-1-yl)ethyl)pyridine-2(1H)-thione], the IC50 in assay [1] was no more than 50 nM; in assay [2], no more than 500 nM; in assay [3], no more than 500 nM.

Regarding `O=C(Nc1cc(=O)n2ccccc2n1)C1(c2ccc(N3CCC[C@@H](NCC4CCC4)C3)cc2)COC1` [Compound 278, (R)-3-(4-(3-((cyclobutylmethyl)amino)piperidin-1-yl)phenyl)-N-(4-oxo-4H-pyrido[1,2-a]pyrimidin-2-yl)oxetane-3-carboxamide], the 50% inhibitory concentration (IC50) is no more than 50 nM in assay [1], no more than 500 nM in assay [2] and no more than 500 nM in assay [3].

For `CN(C)c1cncc(-c2cn(C3(c4ccc(N5CCC[C@@H](NCC6CC6)C5)cn4)COC3)nn2)n1` [Compound 192, (R)-6-(1-(3-(5-(3-((cyclopropylmethyl)amino)piperidin-1-yl)pyridin-2-yl)oxetan-3-yl)-1H-1,2,3-triazol-4-yl)-N,N-dimethylpyrazin-2-amine], the figures for the IC50 in assay [1], in assay [2] and in assay [3] were no more than 50 nM, no more than 500 nM and no more than 500 nM, respectively.

Turning to `COc1cnnc(-c2cn(C(C)n3ccc(N4CCC[C@@H](NCC5CCC5)C4)cc3=O)nn2)c1` (mixture of isomers) [Compound 093, 4-((R)-3-((cyclobutylmethyl)amino)piperidin-1-yl)-1-(1-(4-(5-methoxypyridazin-3-yl)-1H-1,2,3-triazol-1-yl)ethyl)pyridin-2(1H)-one], the IC50 was no more than 50 nM in assay [1], 500 to 5000 nM in assay [2] and 500 to 5000 nM in assay [3].

As to `CC(N[C@@H]1CCCN(c2ccc(C3(C(=O)Nc4cc(=O)n5ccccc5n4)COC3)nc2)C1)C1CCC1` (mixture of isomers) [Compound 336, 3-(5-((3R)-3-((1-cyclobutylethyl)amino)piperidin-1-yl)pyridin-2-yl)-N-(4-oxo-4H-pyrido[1,2-a]pyrimidin-2-yl)oxetane-3-carboxamide], the figures for the IC50 in assay [1], in assay [2] and in assay [3] were no more than 50 nM, no more than 500 nM and no more than 500 nM, respectively.

In the case of `CC(c1ccc(N2CCC[C@@H](NCC3CC3)C2)cn1)n1cc(-c2cncc(N(C)C)n2)nn1` (single isomer, unassigned) [Compound 260], the IC50 is no more than 50 nM in assay [1], no more than 500 nM in assay [2] and no more than 500 nM in assay [3].

Take `COc1cncc(-c2cn(Cc3ccc(N4C[C@@H](F)C[C@@H](NCC5CCC5)C4)nn3)nn2)c1` [Compound 056, (3R,5S)-N-(cyclobutylmethyl)-5-fluoro-1-(6-((4-(5-methoxypyridin-3-yl)-1H-1,2,3-triazol-1-yl)methyl)pyridazin-3-yl)piperidin-3-amine]: the figures for the IC50 in assay [1], in assay [2] and in assay [3] were no more than 50 nM, greater than 5000 nM and greater than 5000 nM, respectively.

For `COc1cncc(-c2cn(C3(c4ccc(N5CCC[C@@H](NCC6CCC6)C5)cn4)COC3)nn2)c1` [Compound 150, (R)-N-(cyclobutylmethyl)-1-(6-(3-(4-(5-methoxypyridin-3-yl)-1H-1,2,3-triazol-1-yl)oxetan-3-yl)pyridin-3-yl)piperidin-3-amine], the IC50 in assay [1] was no more than 50 nM; in assay [2] it was no more than 500 nM; in assay [3] it was no more than 500 nM.

In the case of `CC(c1ccc(N2CCC[C@@H](NCC3CC3)C2)nn1)n1cnc(-c2cncc(N3CCCC3)n2)c1` (single isomer, unassigned) [Compound 340], the results for the IC50 in assay [1], in assay [2] and in assay [3] were no more than 50 nM, no more than 500 nM and no more than 500 nM, respectively.

For `COc1cc(-c2cn(C(C)n3ccc(N4CCC[C@@H](NCC5CCC5)C4)cc3=O)cn2)c2cn[nH]c2c1` (single isomer, unassigned) [Compound 188], the IC50 in assay [1] was no more than 50 nM; in assay [2], 500 to 5000 nM; in assay [3], 500 to 5000 nM.

As to `CC(c1ccc(N2CCC[C@@H](NCC3CC3)C2)cn1)c1nnc(-c2cncc(C3CC3)c2)s1` (stereo partly drawn) [Compound 359, (3R)—N-(cyclopropylmethyl)-1-(6-(1-(5-(5-cyclopropylpyridin-3-yl)-1,3,4-thiadiazol-2-yl)ethyl)pyridin-3-yl)piperidin-3-amine], the values for the IC50 in assay [1], in assay [2] and in assay [3] were no more than 50 nM, no more than 500 nM and no more than 500 nM, respectively.

Values taken from US20250002475A1 (EPICS THERAPEUTICS, priority 2023, published 2025).
